pIC50: −log10 of the molar value. Each block holds one compound with its values, some of them ahead of it. Activity calls are given as the source filed them. No cut-off for these calls is given here.
Experiments:
T98G [1] = test: Growth inhibition of AR-overexpressing human T98G cells measured after 48 hrs by MTT assay; assay type: functional, cell-based
U-87 MG = test: Growth inhibition of AR-overexpressing human U87 cells measured after 48 hrs by MTT assay; assay type: functional, cell-based, U-87MG ATCC
T98G [2] = test: Down regulation of androgen receptor activity in AR-overexpressing human T98G cells at 100 nM measured after 12 hrs by Western blotting analysis; assay type: functional, cell-based
[3] = Apparent half life in mouse plasma at 20 mg/kg, ip measured for 24 hrs by LC-MS/MS analysis; assay type: ADME, organism-based; conditions: plasma

SMILES: COc1ccc(OC)c(COc2cc(NC(=O)OCCOC(=O)Nc3ccc(NS(C)(=O)=O)c(OCc4cc(OC)ccc4OC)c3)ccc2NS(C)(=O)=O)c1
pIC50 (T98G [1]): 5.64 | pIC50 (U-87 MG): 5.28

SMILES: COc1ccc(OC)c(COc2cc(NC(=O)c3ccc(Cl)c([N+](=O)[O-])c3)ccc2NS(C)(=O)=O)c1
pIC50 (T98G [1]): 6.24 | pIC50 (U-87 MG): < 5.00

SMILES: COc1ccc(OC)c(COc2cc(NC(=O)c3ccc(NC(=O)COCC(=O)Nc4ccc(C(=O)Nc5ccc(NS(C)(=O)=O)c(OCc6cc(OC)ccc6OC)c5)cc4)cc3)ccc2NS(C)(=O)=O)c1
pIC50 (T98G [1]): < 5.00 | pIC50 (U-87 MG): < 5.00

SMILES: COc1ccc(OC)c(COc2cc(NC(=O)COCC(=O)Nc3ccc(NS(C)(=O)=O)c(OCc4cc(OC)ccc4OC)c3)ccc2NS(C)(=O)=O)c1
pIC50 (T98G [1]): < 5.00 | pIC50 (U-87 MG): < 5.00

SMILES: COc1ccc(C(=O)Nc2ccc(NS(C)(=O)=O)c(OCc3cc(OC)ccc3OC)c2)cc1
half-life [3]: 1.5 h

SMILES: COc1ccc(OC)c(COc2cc(NC(=O)c3ccc(C#N)cc3)ccc2NS(C)(=O)=O)c1
pIC50 (T98G [1]): 6.10 | pIC50 (U-87 MG): 5.54

SMILES: COc1ccc(OC)c(COc2cc(NC(=O)c3ccc(N(C)C)cc3)ccc2NS(C)(=O)=O)c1
pIC50 (T98G [1]): 5.72 | pIC50 (U-87 MG): < 5.00

SMILES: COc1ccc(OC)c(COc2cc(NC(=O)c3ccc(-c4ccccc4)cc3)ccc2NS(C)(=O)=O)c1
pIC50 (T98G [1]): 6.34 | pIC50 (U-87 MG): 5.16

SMILES: COc1ccc(OC)c(COc2cc(NC(=O)c3ccno3)ccc2NS(C)(=O)=O)c1
pIC50 (T98G [1]): 5.40 | Activity (T98G [2]): Active | pIC50 (U-87 MG): < 5.00

SMILES: COc1ccc(OC)c(COc2cc(NC(=O)OCCOCCOCCOC(=O)Nc3ccc(NS(C)(=O)=O)c(OCc4cc(OC)ccc4OC)c3)ccc2NS(C)(=O)=O)c1
pIC50 (T98G [1]): 5.26 | pIC50 (U-87 MG): < 5.00

SMILES: COc1ccc(OC)c(COc2cc(NC(=O)c3cc(OC)c(OC)c(OC)c3)ccc2NS(C)(=O)=O)c1
pIC50 (T98G [1]): 6.66 | pIC50 (U-87 MG): 5.47

SMILES: CCOc1cccc(C(=O)Nc2ccc(NS(C)(=O)=O)c(OCc3cc(OC)ccc3OC)c2)c1
pIC50 (T98G [1]): 7.42 | pIC50 (U-87 MG): 5.42

SMILES: CCCCCC(=O)Nc1ccc(NS(C)(=O)=O)c(OCc2cc(OC)ccc2OC)c1
pIC50 (T98G [1]): 5.93 | pIC50 (U-87 MG): 5.69

SMILES: COc1ccc(OC)c(COc2cc(NC(=O)c3ccccc3C)ccc2NS(C)(=O)=O)c1
pIC50 (T98G [1]): 6.51 | Activity (T98G [2]): Active | pIC50 (U-87 MG): 5.92

SMILES: CCc1ccc(C(=O)Nc2ccc(NS(C)(=O)=O)c(OCc3cc(OC)ccc3OC)c2)cc1
pIC50 (T98G [1]): 5.41 | pIC50 (U-87 MG): 5.73

SMILES: COc1ccc(OC)c(COc2cc(NC(=O)c3ccc(C)c([N+](=O)[O-])c3)ccc2NS(C)(=O)=O)c1
pIC50 (T98G [1]): 5.43 | pIC50 (U-87 MG): 5.58

SMILES: COc1ccc(OC)c(COc2cc(NC(=O)CCCC(=O)Nc3ccc(NS(C)(=O)=O)c(OCc4cc(OC)ccc4OC)c3)ccc2NS(C)(=O)=O)c1
pIC50 (T98G [1]): < 5.00 | Activity (T98G [2]): Active | pIC50 (U-87 MG): < 5.00

SMILES: COc1ccc(OC)c(COc2cc(NC(=O)c3cccs3)ccc2NS(C)(=O)=O)c1
pIC50 (T98G [1]): 5.46 | Activity (T98G [2]): Active | pIC50 (U-87 MG): < 5.00

SMILES: COc1ccc(OC)c(COc2cc(NC(=O)c3ccc(SC)cc3)ccc2NS(C)(=O)=O)c1
pIC50 (T98G [1]): 7.54 | Activity (T98G [2]): Active | pIC50 (U-87 MG): 7.04

SMILES: COc1ccc(OC)c(COc2cc(NC(=O)c3ccc([N+](=O)[O-])cc3)ccc2NS(C)(=O)=O)c1
pIC50 (T98G [1]): 5.92 | Activity (T98G [2]): Active | pIC50 (U-87 MG): < 5.00

SMILES: COc1ccc(OC)c(COc2cc(NC(=O)c3ccc(OC)c(OC)c3)ccc2NS(C)(=O)=O)c1
pIC50 (T98G [1]): 7.05 | pIC50 (U-87 MG): 6.66

SMILES: COc1ccc(OC)c(COc2cc(NC(=O)c3cccc([N+](=O)[O-])c3)ccc2NS(C)(=O)=O)c1
pIC50 (T98G [1]): 5.30 | pIC50 (U-87 MG): 5.69

Further lines, with some results ahead:

pIC50 (U-87 MG): < 5.00
SMILES: COc1ccc(OC)c(COc2cc(NC(=O)c3cccc(Cl)c3)ccc2NS(C)(=O)=O)c1
pIC50 (T98G [1]): 7.19

pIC50 (U-87 MG): 6.81
SMILES: COc1ccc(OC)c(COc2cc(NC(=O)c3ccc(Br)cc3)ccc2NS(C)(=O)=O)c1
pIC50 (T98G [1]): 6.83

pIC50 (U-87 MG): 6.82
SMILES: COc1ccc(OC)c(COc2cc(NC(=O)c3cc(Cl)cc(Cl)c3)ccc2NS(C)(=O)=O)c1
pIC50 (T98G [1]): 7.01

pIC50 (U-87 MG): 6.28
SMILES: COc1ccc(OC)c(COc2cc(NC(=O)c3cccc(Br)c3)ccc2NS(C)(=O)=O)c1
pIC50 (T98G [1]): 5.57 | Activity (T98G [2]): Active

pIC50 (U-87 MG): 7.04
SMILES: COc1ccc(OC)c(COc2cc(NC(=O)c3ccc(C)cc3)ccc2NS(C)(=O)=O)c1
pIC50 (T98G [1]): 6.67

pIC50 (U-87 MG): 5.08
SMILES: COc1cccc(C(=O)Nc2ccc(NS(C)(=O)=O)c(OCc3cc(OC)ccc3OC)c2)c1
pIC50 (T98G [1]): 6.66

pIC50 (U-87 MG): 5.82
SMILES: COc1ccc(OC)c(COc2cc(NC(=O)c3ccc(C(F)(F)F)c(F)c3)ccc2NS(C)(=O)=O)c1
pIC50 (T98G [1]): 5.32

pIC50 (U-87 MG): 7.34
SMILES: COc1ccc(OC)c(COc2cc(NC(=O)c3ccc(I)cc3)ccc2NS(C)(=O)=O)c1
pIC50 (T98G [1]): 7.32

pIC50 (U-87 MG): 5.77
SMILES: COc1ccc(OC)c(COc2cc(NC(=O)c3ccc(C(F)(F)F)cc3C(F)(F)F)ccc2NS(C)(=O)=O)c1
pIC50 (T98G [1]): 5.63

pIC50 (U-87 MG): 5.69
SMILES: COc1ccc(OC)c(COc2cc(NC(=O)c3ccc(N)cc3)ccc2NS(C)(=O)=O)c1
pIC50 (T98G [1]): 5.44

pIC50 (U-87 MG): 5.60
SMILES: COc1ccc(OC)c(COc2cc(NC(=O)c3ccc(OC(F)(F)F)cc3)ccc2NS(C)(=O)=O)c1
pIC50 (T98G [1]): 6.05 | Activity (T98G [2]): Active

pIC50 (U-87 MG): 6.68
SMILES: COc1ccc(OC)c(COc2cc(NC(=O)c3cccc(I)c3)ccc2NS(C)(=O)=O)c1
pIC50 (T98G [1]): 6.89

pIC50 (U-87 MG): < 5.00
SMILES: COc1ccc(OC)c(COc2cc(NC(=O)c3cccc(C)c3)ccc2NS(C)(=O)=O)c1
pIC50 (T98G [1]): 6.37

pIC50 (U-87 MG): 5.72
SMILES: COc1ccc(OC)c(COc2cc(NC(=O)c3cccc(C#N)c3)ccc2NS(C)(=O)=O)c1
pIC50 (T98G [1]): 5.30

pIC50 (U-87 MG): 6.00
SMILES: COc1ccc(OC)c(COc2cc(NC(=O)c3cccc(C(F)(F)F)c3)ccc2NS(C)(=O)=O)c1
pIC50 (T98G [1]): 6.37

pIC50 (U-87 MG): 6.68
SMILES: COc1ccc(OC)c(COc2cc(NC(=O)c3ccc(Cl)cc3)ccc2NS(C)(=O)=O)c1
pIC50 (T98G [1]): 7.11

pIC50 (U-87 MG): 5.58
SMILES: COc1ccc(OC)c(COc2cc(NC(=O)c3cc(C(F)(F)F)cc(C(F)(F)F)c3)ccc2NS(C)(=O)=O)c1
pIC50 (T98G [1]): 5.98

pIC50 (U-87 MG): 5.68
SMILES: COc1ccc(OC)c(COc2cc(NC(=O)c3ccc(C(F)(F)F)cc3)ccc2NS(C)(=O)=O)c1
pIC50 (T98G [1]): < 5.00

pIC50 (U-87 MG): 6.32
SMILES: COc1ccc(OC)c(COc2cc(NC(=O)c3ccc(Cl)c(Cl)c3)ccc2NS(C)(=O)=O)c1
pIC50 (T98G [1]): 5.62

Reference: ChEMBL document CHEMBL5380853, “Lead Optimization of Androgen Receptor-HSP27 Disrupting Agents in Glioblastoma” (J Med Chem, 2023)
